Test results: article PMC7822030, “Hybrid Inhibitors of DNA Gyrase A and B: Design, Synthesis and Evaluation” (Pharmaceutics, 2020)
Like-named read-outs stand apart in the source and are kept apart here.

Experiments:
P. aeruginosa ATCC 27863 = experiment: MIC broth microdilution, P. aeruginosa; type: cell-based; details: Pseudomonas aeruginosa
Source text: (§1) E. coli MG1655 originated from the laboratory collection of Dr. Csaba Pál. […] E. coli K-12 BW25113 single-gene knockout mutant lines ΔdapF, ΔmrcB, ΔsurA, ΔacrB and ΔtolC originated form the Keio collection copy owned by the laboratory of Dr. Csaba Pál.
(§2) Cation-adjusted Mueller Hinton II broth (MHBII) was used for growth of the bacteria under standard laboratory conditions, for antimicrobial susceptibility tests, and for selection of resistant variants. To prepare the MHBII broth, 22 g MHBII powder (containing 3 g beef extract, 17.5 g acid hydrolysate of casein, 1.5 g starch; Becton, Dickinson and Co., Franklin Lakes, NJ, USA) was dissolved in 1 L water. MHBII agar was prepared by addition of 14 g agar (Bacto; Molar Chemicals, Halásztelek, Hungary) to 1 L broth.
(§3) Minimum inhibitory concentrations (MICs) were determined using a standard serial broth microdilution technique, according to the Clinical and Laboratory Standards Institute guidelines. […] For Enterococcus sp., the cells were plated in BHI agar plates, and BHI broth was used to determine the MICs. […] Following the dilutions, each well was seeded with 5 × 10^4 bacterial cells. Each measurement was performed in three parallel replicates, and to avoid possible edge effects in the microwell plates, the outside rows (A, H) were filled with sterile medium. Following the inoculations, the plates were covered with the lids and wrapped in polyethylene plastic bags, to minimize evaporation but to allow O2 transfer. […] After incubation, the OD600 of each well was measured using a microplate reader (Synergy 2; Biotek, Winooski, VT, USA).

[1] = tested on: E. cloacae spp. cloacae ATCC 13047; experiment: MIC broth microdilution, E. cloacae; type: cell-based, Enterobacter cloacae; details: Enterobacter cloacae, ATCC13047, read-out: MIC E. cloacae spp. cloacae ATCC #
K. pneumoniae ATCC 10031 = experiment: MIC broth microdilution, K. pneumoniae; type: cell-based; details: Klebsiella pneumoniae, ATCC10031, read-out: MIC K. pneumoniae ATCC #
Source text: as §1, §2, §3

[2] = tested on: E. coli MG1655 GyrA S83L, D87N ParC S80I, E84G; experiment: microbe, parasite or virus in culture; type: cell-based, Escherichia coli
Source text: as §1, §2, §3
(§4) These mutated amino acids are the most common sites for target-based resistance in E. coli.

[3] = tested on: E. coli MG1655 GyrB R136C; experiment: microbe, parasite or virus in culture; type: cell-based, Escherichia coli
Source text: as §1, §2, §3, §4

A. baumannii ATCC 17978 = experiment: MIC broth microdilution, A. baumannii; type: cell-based; details: Acinetobacter baumannii, ATCC17978, read-out: MIC A. baumannii ATCC #
Source text: as §1, §2, §3

E. coli topoisomerase IV = target: T1, E. coli topoisomerase IV (Escherichia coli, UniProt P0AFI2+P20083); experiment: E. coli topoisomerase IV relaxation assay; type: biochemical
T1 construct: purchased Inspiralis, Norwich, UK
Description: (§5) The assay for determination of the IC50 values was performed according to previously reported procedures.
(§6) Briefly, inhibitory activities were determined using supercoiling (for DNA gyrase) and relaxation (for topoisomerase IV) assay kits (Inspiralis, Norwich, UK) on streptavidin-coated 96-well microtiter plates from Thermo Scientific Pierce (Thermo Fisher Scientific, Waltham, MA, USA). First, the plates were rehydrated with Wash Buffer and the biotinylated oligonucleotide TFO1 was then immobilized. After washing off the unbound oligonucleotide with Wash Buffer, the enzyme assay was performed. Into each well was added 24 µL of mixture containing 6 µL of Assay Buffer (containing ATP), 0.75 µL of relaxed (for E. coli DNA gyrase supercoiling assay) or supercoiled (for E. coli topoisomerase IV relaxation assay) pNO1 plasmid and 17.25 µL of water. Additionally, 3 µL of a solution of the inhibitor in 10% DMSO containing 0.008% Tween 20 and 3 µL of enzyme (1.5 U) in Dilution Buffer were also added to the wells. […] The TF buffer was added to terminate the enzymatic reaction and after additional incubation for 30 min at room temperature, which allowed for triplex formation (biotin–oligonucleotide–plasmid), the unbound plasmid was washed off using TF buffer. Promega Diamond dye in T10 buffer was then added. […] Here, the compounds were diluted using 2-fold serial dilution steps of the given compound. GraphPad Prism 6.0 software was used to calculate the IC50 values, which were determined in at least two independent measurements, and their means are given as the final result. […] Dose-response curves can be found in Supplementary Materials.

E. coli ATCC 25922 = experiment: MIC broth microdilution, E. coli ATCC 25922; type: cell-based; details: Escherichia coli, ATCC25922, read-out: MIC E. coli ATCC #
Source text: as §1, §2, §3

E. coli MG1655 WT = experiment: MIC, E. coli MG1655 wild-type with PAβN; type: cell-based, Escherichia coli
Source text: as §1, §2
as §3, with “USA). […]” for “USA).”

E. coli BW25113 WT = experiment: MIC, E. coli BW25113 wild-type; type: cell-based; details: Escherichia coli, BW25113, read-out: Minimum Inhibitory Concentration E. coli BW# WT
Source text: as §1, §2, §3

E. coli BW25113 ΔsurA = type: cell-based, Escherichia coli
Source text: as §1, §2, §3

E. coli BW25113 ΔacrB = type: cell-based, Escherichia coli
Source text: as §1, §2, §3

E. coli BW25113 ΔtolC = type: cell-based, Escherichia coli
Source text: as §1, §2, §3

E. coli BW25113 ΔdapF = type: cell-based, Escherichia coli
Source text: as §1, §2, §3

E. coli BW25113 ΔmrcB = type: cell-based, Escherichia coli
Source text: as §1, §2, §3

E. coli DNA gyrase = target: T2, E. coli DNA gyrase (Escherichia coli, UniProt P0AES4+P0AES6); experiment: E. coli DNA gyrase supercoiling assay; type: biochemical
T2 construct: purchased Inspiralis, Norwich, UK
Description: as §5, §6

[4] = molar conversion in parentheses
[5] = in the presence of 50 µg/mL PAβN

Cc1[nH]c(C(=O)Nc2nc3ccc(C(=O)NCCOCCN4CCN(c5cc6c(cc5F)c(=O)c(C(=O)O)cn6C5CC5)CC4)cc3s2)c(Cl)c1Cl.Cl [Compound 11a, 4-(3-Carboxy-1-cyclopropyl-6-fluoro-4-oxo-1,4-dihydroquinolin-7-yl)-1-(2-(2-(2-(3,4-dichloro-5-methyl-1H-pyrrole-2-carboxamido)benzo[d]thiazole-6-carboxamido)ethoxy)ethyl)piperazin-1-ium chloride]
MIC (P. aeruginosa ATCC 27863; ATCC27863, 18 h, read-out: MIC P. aeruginosa ATCC #): > 64 µg/mL | MIC (P. aeruginosa ATCC 27863; ATCC27863, read-out: MIC P. aeruginosa ATCC #, molar conversion in parentheses, read-out: MIC P. aeruginosa ATCC 27863): > 82.9 µM | MIC ([1]; broth microdilution, 18 h): 64 µg/mL | MIC [1, 4]: 82.9 µM | melting point: 187 to 190 °C | MIC (K. pneumoniae ATCC 10031; broth microdilution, 18 h): 4 µg/mL | MIC (K. pneumoniae ATCC 10031; [4]): 5.18 µM | MIC ([2]; Escherichia coli, MG1655, read-out: Minimum Inhibitory Concentration E. coli MG# GyrA S83L, D87N ParC S80I, E84G): 10.4 µM | Minimum Inhibitory Concentration E. coli MG1655 GyrA S83L, D87N ParC S80I, E84G [2, 5]: 8 µg/mL | MIC ([3]; Escherichia coli, MG1655, read-out: Minimum Inhibitory Concentration E. coli MG# GyrB R#C): 0.65 µM | Minimum Inhibitory Concentration E. coli MG1655 GyrB R136C [3, 5]: 0.5 µg/mL | MIC (A. baumannii ATCC 17978; broth microdilution, 18 h): > 64 µg/mL | MIC (A. baumannii ATCC 17978; [4]): > 82.9 µM | IC50 (E. coli topoisomerase IV): > 10 µM | Inhibition of topoisomerase IV (in words) (E. coli topoisomerase IV; relaxation assay): lack of activity | MIC (E. coli ATCC 25922; broth microdilution, 18 h): 32 µg/mL | MIC (E. coli ATCC 25922; [4]): 41.5 µM | MIC (E. coli MG1655 WT; Escherichia coli, MG1655, read-out: Minimum Inhibitory Concentration E. coli MG# WT, 50 µg/mL PAβN, molar conversion in parentheses): 0.65 µM | Minimum Inhibitory Concentration E. coli MG1655 WT (E. coli MG1655 WT; [5]): 0.5 µg/mL | MIC (E. coli BW25113 WT; [4]): 41.5 µM | MIC (E. coli BW25113 WT; wild-type): 32 µg/mL | Minimum Inhibitory Concentration E. coli BW25113 ΔsurA (E. coli BW25113 ΔsurA; impaired cell-wall mutant): 16 µg/mL | Minimum Inhibitory Concentration E. coli BW25113 ΔsurA (E. coli BW25113 ΔsurA; [4]): (20.7 µM) | Minimum Inhibitory Concentration E. coli BW25113 ΔacrB (E. coli BW25113 ΔacrB; efflux pump mutant): 32 µg/mL | Minimum Inhibitory Concentration E. coli BW25113 ΔacrB (E. coli BW25113 ΔacrB; [4]): (41.5 µM) | Minimum Inhibitory Concentration E. coli BW25113 ΔtolC (E. coli BW25113 ΔtolC; efflux pump mutant): 0.5 µg/mL | Minimum Inhibitory Concentration E. coli BW25113 ΔtolC (E. coli BW25113 ΔtolC; [4]): (0.65 µM) | Minimum Inhibitory Concentration E. coli BW25113 ΔdapF (E. coli BW25113 ΔdapF; impaired cell-wall mutant): 32 µg/mL | Minimum Inhibitory Concentration E. coli BW25113 ΔdapF (E. coli BW25113 ΔdapF; [4]): (41.5 µM) | Minimum Inhibitory Concentration E. coli BW25113 ΔmrcB (E. coli BW25113 ΔmrcB; impaired cell-wall mutant): 32 µg/mL | Minimum Inhibitory Concentration E. coli BW25113 ΔmrcB (E. coli BW25113 ΔmrcB; [4]): (41.5 µM) | IC50 (E. coli DNA gyrase): 0.13 ± 0.03 µM
